Test results reported in US12643887B2, “Heterocyclic derivatives with cardiomyocyte proliferation activity for treatment of heart diseases” (Tongji University, priority 2019, dated 2026).

Tested on: Neonatal Rat Ventricular Myocytes (NRVMs)
Assay: Myocyte proliferation assay (EdU assay) in neonatal rat ventricular myocytes
Assay type: cell-based
Conditions: growth relative to blank myocyte growth without compound added; for Avg 1 uM (average myocyte proliferation): compound 1 uM; for Avg 3 uM (average myocyte proliferation): compound 3 uM
Experimental: 1. Isolation of and Culture Neonatal Rat Ventricular Myocytes (NRVMs)
Ventricles from neonatal rats were separated from the atria, cut into small pieces (about 2×2 mm^2) and then dissociated in Ca2+-free HBSS containing 0.125 mg ml-1 trypsin (Gibco), 10 μg ml-1 DNase II (Sigma) and 0.1 mg ml-1 collagenase type IV (Sigma). The digestion was carried out under constant stirring at 37° C. for 5 min. The supernatant was collected with FBS (Gibco) after each digestion period. After digestion, the collected supernatant was centrifuged at 1000 g for 10 min at room temperature, and then cell pellets were resuspended in DMEM (Gibco) supplemented with 10% FBS and with 100 uM 5-bromo-2′-deoxyuridine (Sigma). The resuspended cells were passed through a cell strainer ([…], BD Falcon) and seeded onto 100-mm plastic dishes for 2 h at 37° C. in a 5% CO2 to remove fibroblasts, the supernatant was then collected and plated onto 1% gelatin (Sigma)-coated dishes. 24 h after the seeding, the medium was changed to DMEM (Gibco) containing 2% FBS (Gibco), 1% insulin-transferrin-selenium (ITS; Gibco), 1% Penicillin-Streptomycin (Gibco). After 24 hours of low serum culture, remove the medium with DMEM (Gibco) containing 6% FBS (Gibco), 1% insulin-transferrin-selenium (ITS; Gibco), 1% Penicillin-Streptomycin (Gibco), different concentrations of compounds (the compounds were pre-diluted in the medium and the drug concentration was 10 uM, 3 uM, 1 uM, fully mixed). After 36 h add Edu substrate (Invitrogen) according to the manufacturer's guidelines, and then after 12 h cell can be used.
• 2.1. Immobilization: Remove the medium and fix the cells with […] in 200 ul (whichever is covered) for 15 min and wash the cells twice with 500 ul of PBS for 5 min each time. • 2.2. Broken membrane: Add 200 ul of 0.3% Triton-X 100 (diluted in PBS) to each well, incubate for 10-15 min at room temperature (the time should not be too long), and wash the cells twice with 500 ul of PBS for 5 min each time. • 2.3. Blocking: Add 200 ul of 10% normal goat serum (diluted with 0.1% PBST) to each well, incubate for 1 h at room temperature, and wash twice with 500 ul of 0.1% PBST for 5 min each time. • 2.4. Primary antibody: dilute the primary antibody (abcam, ab8295) to blocking solution at a ratio of 1:200, add 100 ul per well, incubate for 1 h at room temperature (may be slightly longer than 2-3 h), wash the cells twice with 500 ul 0.1% PBST for 5 min each time. • 2.5. Secondary antibody: Dilute the fluorescently labeled secondary antibody (abcam, ab150117) into blocking solution at a ratio of 1:200, add 100 ul per well, incubate for 1 h at room temperature (the time should not be too long), wash the cells twice with 0.1% PBST for 5 min each time, pay attention to the whole process. Protected from light. • 2.6. Edu staining (Invitrogen C10338) • 2.6.1 Prepare Click-iT® reaction cocktail according to Table 3. It was important to add the ingredients in the order listed in the table; otherwise, the reaction would not proceed optimally. Use the Click-iT® reaction cocktail within 15 minutes of preparation.
• 2.6.2 Add 0.1 mL of Click-iT® reaction cocktail to each well containing a coverslip. Rock the plate briefly to ensure that the reaction cocktail is distributed evenly over the coverslip. • 2.6.3 Incubate the plate for 30 minutes at room temperature, protected from light. • 2.6.4 Remove the reaction cocktail, then wash the cells twice with 0.1% PBST for 5 min each time. • 2.7. DAPI staining: DAPI stain was diluted to PBS at a ratio of 1:1000, 100 ul per well, incubated for 30 min at room temperature, and the cells were washed twice with PBS for 5 min each. 3. Data Analysis
We used Molecular Devices' Image Xpress Micro Confocal for high-throughput photo and data analysis.

| Structure (SMILES) | Avg 1 uM (average myocyte proliferation) | Avg 3 uM (average myocyte proliferation) |
| --- | --- | --- |
| O=C1NC(Nc2ccccc2)=N/C1=C\c1ccc2nn[nH]c2c1 [Example 56, (Z)-5-((1H-benzo[d][1,2,3]triazol-6-yl)methylene)-2-(phenylamino)-3,5-dihydro-4H-imidazol-4-one] | * (<10% growth relative to blank myocyte growth without compound added.) | * (<10% growth relative to blank myocyte growth without compound added.) |
| O=C1NC(Nc2ccc3ncsc3c2)=N/C1=C\c1ccc2scnc2c1 [Example 57, (Z)-5-(benzo[d]thiazol-5-ylmethylene)-2-(benzo[d]thiazol-6-ylamino)-3,5-dihydro-4H-imidazol-4-one] | * (<10% growth relative to blank myocyte growth without compound added.) | * (<10% growth relative to blank myocyte growth without compound added.) |
| O=C1NC(Nc2ccc3ncsc3c2)=N/C1=C\c1ccc2[nH]ccc2c1 [Example 58, (Z)-5-((1H-indol-5-yl)methylene)-2-(benzo[d]thiazol-6-ylamino)-3,5-dihydro-4H-imidazol-4-one] | * (<10% growth relative to blank myocyte growth without compound added.) | * (<10% growth relative to blank myocyte growth without compound added.) |
| O=C1NC(Nc2ccc3ncsc3c2)=N/C1=C\c1ccc2occc2c1 [Example 59, (Z)-2-(benzo[d]thiazol-6-ylamino)-5-(benzofuran-5-ylmethylene)-3,5-dihydro-4H-imidazol-4-one] | * (<10% growth relative to blank myocyte growth without compound added.) | * (<10% growth relative to blank myocyte growth without compound added.) |
| O=C1NC(Nc2ccc3ncsc3c2)=N/C1=C\c1ccc2cccnc2c1 [Example 60, (Z)-2-(benzo[d]thiazol-6-ylamino)-5-(quinolin-7-ylmethylene)-3,5-dihydro-4H-imidazol-4-one] | * (<10% growth relative to blank myocyte growth without compound added.) | * (<10% growth relative to blank myocyte growth without compound added.) |
| Cn1cnc2cc(NC3=N/C(=C\c4ccc5ncsc5c4)C(=O)N3)ccc21 [Example 61, (Z)-5-(benzo[d]thiazol-6-ylmethylene)-2-((1-methyl-1H-benzo[d]imidazol-5-yl)amino)-3,5-dihydro-4H-imidazol-4-one] | * (<10% growth relative to blank myocyte growth without compound added.) | ** (10%-50%) |
| O=C1NC(Nc2ccc3ncsc3c2)=N/C1=C\c1ccc2cc[nH]c2c1 [Example 63, (Z)-5-((1H-indol-6-yl)methylene)-2-(benzo[d]thiazol-6-ylamino)-3,5-dihydro-4H-imidazol-4-one] | * (<10% growth relative to blank myocyte growth without compound added.) | * (<10% growth relative to blank myocyte growth without compound added.) |
| O=C1NC(Nc2ccc3[nH]ccc3c2)=N/C1=C\c1ccc2ncsc2c1 [Example 69, (Z)-2-((1H-indol-5-yl)amino)-5-(benzo[d]thiazol-6-ylmethylene)-3,5-dihydro-4H-imidazol-4-one] | ** (10%-50%) | * (<10% growth relative to blank myocyte growth without compound added.) |
| Cn1cnc2cc(/C=C3\N=C(Nc4ccccc4)NC3=O)ccc21 [Example 71, (Z)-5-((1-methyl-1H-benzo[d]imidazol-5-yl)methylene)-2-(phenylamino)-3,5-dihydro-4H-imidazol-4-one] | * (<10% growth relative to blank myocyte growth without compound added.) | * (<10% growth relative to blank myocyte growth without compound added.) |
